In the supplement of paper PMC11208160:

test: recombinant UMI read abundance after kanamycin selection (control-corrected) (log10(CPM+1)); higher = more efficient recombination; extreme values may be limits of the assay; sequences stand for … in AGTGCAGAGAAAATCGGCCAGTTTTCTCTGCCTGCAGTCCGCATGCCGTGGGACCCCTTGGGTTCTAACCTGTTGCCTAGATTTATGCAGCGGACTGCCTTTCTCCCAAAGTGATAAACCGG…AGGTTGGTTTCACT; site = the 11-nt donor
Outline: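 Counts of recombinant UMIs were reported as log10(CPM+1). Before that, they were converted to CPM, averaged over replicates and scaled using control-derived factors. They came from PCR across the donor–target junction after Escherichia coli carrying the pair library and target plasmid was plated on IPTG (0.07 mM) plus kanamycin, or unselected, in two replicates each.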
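Further: IS621 bridge recombinase in Escherichia coli cells against a fixed T5 target plasmid.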

“TGGTCAACATGGACCGGTTTTCCCGGTAATCCGTATTTGCG (site TGGTCAACTCG)” and “GGTACAACATGGACCGGTTTTCCCGGTAATCCGTATTTGTA (site GGTGCAACTTA)” are within 0.2 log units of each other in “recombinant UMI read abundance (log10)” value: 0.0115 for the first, 0.0119 for the second.

Compared with “CATCCCTCATGGACCGGTTTTCCCGGTAATCCGTATTTGTA (site CATCCCTCTTA)”, “CGTGGAACATGGACCGGTTTTCCCGGTAATCCGTATTTGTC (site CGTGGAACTAA)” is lower in “recombinant UMI read abundance (log10)” value: 3.33 for the first, 0 for the second.

Compared with “TGAGCTTCATGGACCGGTTTTCCCGGTAATCCGTATTTGTA (site TGAGCTTCTTA)”, “ATTGAGGCATGGACCGGTTTTCCCGGTAATCCGTATTTGGT (site ATTGAGACTAC)” is lower in “recombinant UMI read abundance (log10)” value: 1.92 for the first, 0.413 for the second.

“AATGTGTCATGGACCGGTTTTCCCGGTAATCCGTATTTGAT (site AATGTGTCTTT)” and “CCCAGATCATGGACCGGTTTTCCCGGTAATCCGTATTTGGA (site CCCAGATCTTC)” are within 0.2 log units of each other in “recombinant UMI read abundance (log10)” value: 0.0089 for the first, 0.0263 for the second.

Compared with “TAATTCACATGGACCGGTTTTCCCGGTAATCCGTATTTGGG (site TAATTCACTCC)”, “TCAGAATCATGGACCGGTTTTCCCGGTAATCCGTATTTGCG (site TCAGAATCTCG)” is higher in “recombinant UMI read abundance (log10)” value: 0.0061 for the first, 2.57 for the second.

First: AAGCAGTCATGGACCGGTTTTCCCGGTAATCCGTATTTGAC (site AAGCAGTCTGT)
Second: GGGGCATCATGGACCGGTTTTCCCGGTAATCCGTATTTGCA (site GGGGCACCTTG)
The “recombinant UMI read abundance (log10)” value of the first is higher: 2.88 for the first, 0 for the second.

“AGGAATACATGGACCGGTTTTCCCGGTAATCCGTATTTGAC (site AGGAATACTGT)” and “GTTGTGGCATGGACCGGTTTTCCCGGTAATCCGTATTTGAG (site GTTGTGGCTCT)” are within 0.2 log units of each other in “recombinant UMI read abundance (log10)” value: 1.74 for the first, 1.71 for the second.

Going from “GCGCTGACATGGACCGGTTTTCCCGGTAATCCGTATTTGAG (site GCGCTGACTCT)” to “ACACTATCATGGACCGGTTTTCCCGGTAATCCGTATTTGCA (site ACATTATCTTG)”, the “recombinant UMI read abundance (log10)” value rises from 1.62 to 2.21.

First: AGAAATGCATGGACCGGTTTTCCCGGTAATCCGTATTTGCT (site AGAAATGCTAG)
Second: CGATCATCATGGACCGGTTTTCCCGGTAATCCGTATTTGCT (site TGATCATCTAC)
The “recombinant UMI read abundance (log10)” value of the first is higher: 2.23 for the first, 0.00378 for the second.

Compared with “AATAGAACATGGACCGGTTTTCCCGGTAATCCGTATTTGAG (site AATAGAACTCT)”, “TTCTACACATGGACCGGTTTTCCCGGTAATCCGTATTTGCT (site ATCTACACTAG)” is lower in “recombinant UMI read abundance (log10)” value: 2 for the first, 0.34 for the second.

Going from “TCATAATCATGGACCGGTTTTCCCGGTAATCCGTATTTGCA (site TCATAGTCTTG)” to “ACAGGATCATGGACCGGTTTTCCCGGTAATCCGTATTTGCC (site ACAGGATCTGG)”, the “recombinant UMI read abundance (log10)” value rises from 1.06 to 2.27.

Going from “AATGATGCATGGACCGGTTTTCCCGGTAATCCGTATTTGGA (site AATGATGCTTC)” to “TCAGGCGCATGGACCGGTTTTCCCGGTAATCCGTATTTGGT (site TCAGGCGCTAC)”, the “recombinant UMI read abundance (log10)” value falls from 1.06 to 0.385.

First: CTGTCGTCATGGACCGGTTTTCCCGGTAATCCGTATTTGTG (site CTGTCGTCTCA)
Second: GGCTAGACATGGACCGGTTTTCCCGGTAATCCGTATTTGCC (site GGGTAGACTGG)
The “recombinant UMI read abundance (log10)” value of the first is higher: 0.831 for the first, 0 for the second.

Going from “TAACGTCCATGGACCGGTTTTCCCGGTAATCCGTATTTGTA (site TAACGTCCTTA)” to “GCCACGCCATGGACCGGTTTTCCCGGTAATCCGTATTTGTG (site GCCACGCCTCA)”, the “recombinant UMI read abundance (log10)” value falls from 0.935 to 0.0225.

“CGATCATCATGGACCGGTTTTCCCGGTAATCCGTATTTGCT (site CGAACGTCTAG)” and “TAATGAGCATGGACCGGTTTTCCCGGTAATCCGTATTTGGG (site TAATAAGCTCC)” are within 0.2 log units of each other in “recombinant UMI read abundance (log10)” value: 0.00334 for the first, 0.0171 for the second.

First: ACGCAATCATGGACCGGTTTTCCCGGTAATCCGTATTTGAT (site ACGCAATCTAT)
Second: GCGAAGCCATGGACCGGTTTTCCCGGTAATCCGTATTTGGC (site GCGAAGCCTTC)
The “recombinant UMI read abundance (log10)” value of the first is higher: 2.55 for the first, 0.664 for the second.

First: CGGAATCCATGGACCGGTTTTCCCGGTAATCCGTATTTGTG (site CGGAATCCTTA)
Second: TCAGGTCCATGGACCGGTTTTCCCGGTAATCCGTATTTGAT (site TCAGGTCCTAT)
The “recombinant UMI read abundance (log10)” value of the first is lower: 0 for the first, 1.68 for the second.

First: CGGAATCCATGGACCGGTTTTCCCGGTAATCCGTATTTGTT (site CGGAATTCTTA)
Second: AATGCGTCATGGACCGGTTTTCCCGGTAATCCGTATTTGAC (site AATGCGTCTGT)
The “recombinant UMI read abundance (log10)” value of the first is lower: 0 for the first, 2.03 for the second.

First: GACTTTGCATGGACCGGTTTTCCCGGTAATCCGTATTTGCA (site GACTTTGCTTG)
Second: ACAAGGCCATGGACCGGTTTTCCCGGTAATCCGTATTTGAC (site ATAAGGCCTGT)
The “recombinant UMI read abundance (log10)” value of the first is lower: 0 for the first, 1.34 for the second.

Going from “CGCCTGACATGGACCGGTTTTCCCGGTAATCCGTATTTGAG (site CGCCTGACTCT)” to “TCCAATTCATGGACCGGTTTTCCCGGTAATCCGTATTTGCG (site TCCAATTCTGG)”, the “recombinant UMI read abundance (log10)” value falls from 0.947 to 0.

Compared with “AGGAAGACATGGACCGGTTTTCCCGGTAATCCGTATTTGGA (site AGGAAGACTTG)”, “CGAGTATCATGGACCGGTTTTCCCGGTAATCCGTATTTGAT (site CGAGTATCTAT)” is higher in “recombinant UMI read abundance (log10)” value: 1.04 for the first, 2.89 for the second.

First: ACTGTAACATGGACCGGTTTTCCCGGTAATCCGTATTTGCT (site ACTGTAACTAG)
Second: GAGTGGACATGGACCGGTTTTCCCGGTAATCCGTATTTGAC (site GACTGGACTGT)
The “recombinant UMI read abundance (log10)” value of the first is higher: 2.23 for the first, 0.208 for the second.

“AAATCTACATGGACCGGTTTTCCCGGTAATCCGTATTTGTG (site ATATCTACTCA)” and “TTAGCTGCATGGACCGGTTTTCCCGGTAATCCGTATTTGTT (site TTAGCTGCTTA)” are within 0.2 log units of each other in “recombinant UMI read abundance (log10)” value: 0.0108 for the first, 0.0119 for the second.

Compared with “AATTATGCATGGACCGGTTTTCCCGGTAATCCGTATTTGGA (site AATTGTGCTTC)”, “AAAGTAACATGGACCGGTTTTCCCGGTAATCCGTATTTGCT (site AACGTAACTAG)” is higher in “recombinant UMI read abundance (log10)” value: 0.266 for the first, 2.06 for the second.

“CGGGCATCATGGACCGGTTTTCCCGGTAATCCGTATTTGCT (site CGATCATCTAG)” and “GGTCCAACATGGACCGGTTTTCCCGGTAATCCGTATTTGTA (site GGTCTAACTTA)” are within 0.2 log units of each other in “recombinant UMI read abundance (log10)” value: 0 for the first, 0.00385 for the second.

“GCTACGCCATGGACCGGTTTTCCCGGTAATCCGTATTTGCG (site GCTACGCCTCG)” and “ACATCTACATGGACCGGTTTTCCCGGTAATCCGTATTTGCG (site ACATCTACTCA)” are within 0.2 log units of each other in “recombinant UMI read abundance (log10)” value: 0.00779 for the first, 0.195 for the second.

Compared with “GCCCACCCATGGACCGGTTTTCCCGGTAATCCGTATTTGTT (site GTCCACCCTAA)”, “CGATCATCATGGACCGGTTTTCCCGGTAATCCGTATTTGCT (site CGACAATCTAG)” is higher in “recombinant UMI read abundance (log10)” value: 0.0135 for the first, 0.437 for the second.

First: TCCCAAACATGGACCGGTTTTCCCGGTAATCCGTATTTGCT (site TCCCAAACTAG)
Second: CTAGTACCATGGACCGGTTTTCCCGGTAATCCGTATTTGAT (site CTAGTATCTGT)
The “recombinant UMI read abundance (log10)” value of the first is lower: 0.0138 for the first, 1.35 for the second.

For “GGATACACATGGACCGGTTTTCCCGGTAATCCGTATTTGCC (site GGATACACTGG)”, the “recombinant UMI read abundance (log10)” value was 2.97.
